Assay results taken from paper PMC11982291 (Communications Biology, 2025).

Columns and labels:
[1] = biological target: T1, XRN2 (Homo sapiens, UniProt Q9H0D6); experiment: SPR; assay type: binding
T1 sequence (Q9H0D6 1-790): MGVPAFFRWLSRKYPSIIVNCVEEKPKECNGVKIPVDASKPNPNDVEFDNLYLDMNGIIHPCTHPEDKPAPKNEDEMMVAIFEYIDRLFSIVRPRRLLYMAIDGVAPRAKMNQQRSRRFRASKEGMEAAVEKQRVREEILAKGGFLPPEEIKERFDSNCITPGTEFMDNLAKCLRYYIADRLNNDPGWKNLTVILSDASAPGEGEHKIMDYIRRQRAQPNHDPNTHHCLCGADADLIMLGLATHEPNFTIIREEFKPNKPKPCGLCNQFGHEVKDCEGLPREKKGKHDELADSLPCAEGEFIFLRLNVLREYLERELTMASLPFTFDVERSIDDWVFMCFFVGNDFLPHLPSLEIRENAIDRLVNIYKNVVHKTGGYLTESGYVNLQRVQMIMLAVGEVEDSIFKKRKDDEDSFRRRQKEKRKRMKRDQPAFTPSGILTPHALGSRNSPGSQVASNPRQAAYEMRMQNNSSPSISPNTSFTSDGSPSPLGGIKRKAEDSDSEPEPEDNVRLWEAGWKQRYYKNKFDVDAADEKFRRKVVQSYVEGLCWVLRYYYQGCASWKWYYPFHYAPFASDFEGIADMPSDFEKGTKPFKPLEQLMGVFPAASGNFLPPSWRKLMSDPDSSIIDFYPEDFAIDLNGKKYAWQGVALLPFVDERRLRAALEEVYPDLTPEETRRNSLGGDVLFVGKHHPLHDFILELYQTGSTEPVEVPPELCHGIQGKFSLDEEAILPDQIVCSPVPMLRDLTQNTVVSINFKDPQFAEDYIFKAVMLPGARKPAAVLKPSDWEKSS

[2] = biological target: XRN1 (5’-3’ exoribonuclease 1) (Homo sapiens, UniProt Q8IZH2); experiment: SPR; assay type: binding
XRN1 (5’-3’ exoribonuclease 1), sequence (Q8IZH2 1-1191): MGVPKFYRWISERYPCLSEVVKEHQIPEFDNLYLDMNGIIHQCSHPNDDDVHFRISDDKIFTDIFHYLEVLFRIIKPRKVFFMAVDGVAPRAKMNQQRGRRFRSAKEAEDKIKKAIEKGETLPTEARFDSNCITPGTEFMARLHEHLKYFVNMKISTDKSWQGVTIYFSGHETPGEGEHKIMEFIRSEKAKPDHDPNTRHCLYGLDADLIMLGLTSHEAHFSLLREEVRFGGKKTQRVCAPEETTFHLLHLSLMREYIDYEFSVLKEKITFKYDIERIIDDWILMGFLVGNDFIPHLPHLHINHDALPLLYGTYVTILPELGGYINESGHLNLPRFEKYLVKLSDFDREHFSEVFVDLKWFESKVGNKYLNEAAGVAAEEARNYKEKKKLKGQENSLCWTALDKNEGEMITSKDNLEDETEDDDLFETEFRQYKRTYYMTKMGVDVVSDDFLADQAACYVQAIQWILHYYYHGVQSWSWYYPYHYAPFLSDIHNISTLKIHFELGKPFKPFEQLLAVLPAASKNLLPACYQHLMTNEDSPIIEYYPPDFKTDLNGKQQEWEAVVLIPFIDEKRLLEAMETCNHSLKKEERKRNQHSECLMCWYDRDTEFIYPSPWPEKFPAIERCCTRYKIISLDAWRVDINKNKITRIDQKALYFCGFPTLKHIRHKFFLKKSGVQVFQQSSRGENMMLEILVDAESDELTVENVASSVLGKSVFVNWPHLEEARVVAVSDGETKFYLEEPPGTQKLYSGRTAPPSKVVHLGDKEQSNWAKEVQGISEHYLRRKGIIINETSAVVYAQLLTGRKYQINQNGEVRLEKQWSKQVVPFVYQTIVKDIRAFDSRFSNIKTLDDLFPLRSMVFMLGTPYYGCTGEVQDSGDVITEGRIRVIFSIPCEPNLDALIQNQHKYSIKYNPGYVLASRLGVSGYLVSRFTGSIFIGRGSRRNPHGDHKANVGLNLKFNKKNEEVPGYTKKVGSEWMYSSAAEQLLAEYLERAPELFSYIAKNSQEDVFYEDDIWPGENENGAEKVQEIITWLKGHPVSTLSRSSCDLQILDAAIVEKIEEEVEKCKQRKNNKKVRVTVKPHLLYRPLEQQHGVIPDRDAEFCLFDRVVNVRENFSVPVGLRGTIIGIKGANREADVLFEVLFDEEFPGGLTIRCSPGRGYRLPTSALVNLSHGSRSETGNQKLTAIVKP

Kd [1]: 14 ± 4 nM
Kd [2]: 12 ± 1 nM
Structure (SMILES): Nc1ncnc2c1ncn2[C@@H]1O[C@H](COP(=O)(O)O)[C@@H](OP(=O)(O)O)[C@H]1O [pAp, adenosine-3’,5’-bisphosphate]
